In ChEMBL document CHEMBL1131762, “Synthesis and identification of conformationally constrained selective MMP inhibitors” (Bioorg Med Chem Lett, 1999):

Assays:
Neutrophil collagenase = Neutrophil collagenase (Homo sapiens, UniProt P22894); assay: Inhibition of human recombinant matrix metalloprotease-8 (hMMP-8)
Collagenase 3 = Collagenase 3 (Homo sapiens, UniProt P45452); assay: Inhibition of human recombinant matrix metalloprotease-13 (hMMP-13)
Interstitial collagenase = target: T1, Interstitial collagenase (Homo sapiens, UniProt P03956); assay: Inhibition of human recombinant matrix metalloprotease-1 (hMMP-1)
T1 sequence (P03956 whole entry): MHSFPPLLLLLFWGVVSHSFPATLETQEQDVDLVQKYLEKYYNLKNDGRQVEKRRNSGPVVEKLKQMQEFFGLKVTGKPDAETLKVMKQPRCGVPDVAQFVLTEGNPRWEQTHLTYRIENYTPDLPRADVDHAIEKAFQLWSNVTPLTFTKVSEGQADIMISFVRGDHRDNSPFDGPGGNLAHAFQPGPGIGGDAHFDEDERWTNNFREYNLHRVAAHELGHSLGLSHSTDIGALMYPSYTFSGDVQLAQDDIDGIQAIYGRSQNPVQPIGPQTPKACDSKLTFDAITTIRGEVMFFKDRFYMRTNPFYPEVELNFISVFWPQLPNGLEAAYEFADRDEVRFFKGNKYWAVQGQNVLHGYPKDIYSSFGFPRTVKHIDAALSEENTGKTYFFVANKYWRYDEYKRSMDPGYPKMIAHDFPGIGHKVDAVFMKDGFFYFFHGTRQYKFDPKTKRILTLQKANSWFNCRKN

Chain of Neutrophil collagenase (P22894 whole entry): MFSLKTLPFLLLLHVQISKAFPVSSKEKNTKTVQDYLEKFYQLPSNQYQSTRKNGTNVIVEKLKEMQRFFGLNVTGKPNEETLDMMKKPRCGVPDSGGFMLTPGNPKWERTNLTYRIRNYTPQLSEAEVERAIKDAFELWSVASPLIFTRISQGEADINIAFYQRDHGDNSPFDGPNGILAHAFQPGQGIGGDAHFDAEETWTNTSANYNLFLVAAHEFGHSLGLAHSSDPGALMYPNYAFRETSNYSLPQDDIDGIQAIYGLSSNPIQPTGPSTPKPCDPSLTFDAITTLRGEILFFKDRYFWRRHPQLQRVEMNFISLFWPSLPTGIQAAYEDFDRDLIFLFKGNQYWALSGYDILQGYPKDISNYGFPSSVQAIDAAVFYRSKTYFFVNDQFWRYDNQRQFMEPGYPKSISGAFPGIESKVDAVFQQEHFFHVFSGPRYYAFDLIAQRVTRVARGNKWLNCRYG

| Compound | IC50 (Neutrophil collagenase) [nM] | IC50 (Interstitial collagenase) [nM] | IC50 (Collagenase 3) [nM] |
| --- | --- | --- | --- |
| O=S(=O)(c1ccc(Oc2ccccc2)cc1)C1CCCC(S)C1 (centres undefined) | 8 | 1700 | 1 |
| O=S(=O)(c1ccc(Sc2ccccc2)cc1)C1CCCC(S)C1 (centres undefined) | 50 | > 10000 | – |

Second part, led by results:

| IC50 (Neutrophil collagenase) [nM] | IC50 (Interstitial collagenase) [nM] | Compound | IC50 (Collagenase 3) [nM] |
| --- | --- | --- | --- |
| 585 | 1000 | COc1ccc(S(=O)(=O)C2CCCC(S)C2)cc1 (centres undefined) | – |
| – | > 10000 | COc1ccc(S(=O)(=O)C2CCC(S)C2)cc1 (centres undefined) | – |
| 1100 | – | COc1ccc(S(=O)(=O)CCCS)cc1 | – |
